Assay results: PubChem BioAssay (NCI)
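Step 1: Grow cells in 96-well plates. Step 2: Expose to compound for 48 hours at 5 concentrations. Step 3: Interpolate endpoints linearly; if unreached, use highest concentration. TGI is the concentration that stops growth completely.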

Columns and labels:
Assay in all cases: growth of human tumour cells (NCI), 48 h
UO-31 renal = tested on: UO-31 renal
OVCAR-5 ovarian = tested on: OVCAR-5 ovarian
A498 renal = tested on: A498 renal
MDA-MB-231 breast = tested on: MDA-MB-231 breast
SNB-75 CNS = tested on: SNB-75 CNS
MOLT-4 leukemia = tested on: MOLT-4 leukemia
SNB-19 CNS = tested on: SNB-19 CNS
UACC-257 melanoma = tested on: UACC-257 melanoma
TK-10 renal = tested on: TK-10 renal
SF-268 CNS = tested on: SF-268 CNS
PC-3 prostate = tested on: PC-3 prostate
MCF7 breast = tested on: MCF7 breast
HCT-116 colon = tested on: HCT-116 colon
BT-549 breast = tested on: BT-549 breast
KM12 colon = tested on: KM12 colon
786-0 renal = tested on: 786-0 renal
NCI-H23 lung = tested on: NCI-H23 lung
SK-MEL-28 melanoma = tested on: SK-MEL-28 melanoma
SF-295 CNS = tested on: SF-295 CNS
ACHN renal = tested on: ACHN renal
A549 NSCLC = tested on: A549 NSCLC
HOP-62 NSCLC = tested on: HOP-62 NSCLC
SK-OV-3 ovarian = tested on: SK-OV-3 ovarian
MDA-N = tested on: MDA-N
SK-MEL-2 melanoma = tested on: SK-MEL-2 melanoma
MALME-3M melanoma = tested on: MALME-3M melanoma
SW-620 colon = tested on: SW-620 colon
K-562 leukemia = tested on: K-562 leukemia
UACC-62 melanoma = tested on: UACC-62 melanoma
DU-145 prostate = tested on: DU-145 prostate
U251 CNS = tested on: U251 CNS
OVCAR-3 ovarian = tested on: OVCAR-3 ovarian
RPMI-8226 leukemia = tested on: RPMI-8226 leukemia
HCC-2998 colon = tested on: HCC-2998 colon
M14 melanoma = tested on: M14 melanoma
NCI/ADR-RES ovarian = tested on: NCI/ADR-RES ovarian
IGROV1 ovarian = tested on: IGROV1 ovarian
OVCAR-4 ovarian = tested on: OVCAR-4 ovarian
MDA-MB-435 = tested on: MDA-MB-435
HCT-15 colon = tested on: HCT-15 colon
COLO 205 colon = tested on: COLO 205 colon
NCI-H522 lung = tested on: NCI-H522 lung
HT29 colon = tested on: HT29 colon
HOP-92 NSCLC = tested on: HOP-92 NSCLC
CAKI-1 renal = tested on: CAKI-1 renal
OVCAR-8 ovarian = tested on: OVCAR-8 ovarian
SK-MEL-5 melanoma = tested on: SK-MEL-5 melanoma
HS 578T breast = tested on: HS 578T breast
RXF 393 renal = tested on: RXF 393 renal
EKVX NSCLC = tested on: EKVX NSCLC
NCI-H460 lung = tested on: NCI-H460 lung
SN12C renal = tested on: SN12C renal
SR leukemia = tested on: SR leukemia
SF-539 CNS = tested on: SF-539 CNS
HL-60(TB) leukemia = tested on: HL-60(TB) leukemia
NCI-H226 lung = tested on: NCI-H226 lung
CCRF-CEM leukemia = tested on: CCRF-CEM leukemia
LOX IMVI melanoma = tested on: LOX IMVI melanoma

CCOP(=O)(Nc1ccccc1P(=O)(OCC)OCC)OCC
TGI (UO-31 renal): > 100 µM
TGI (OVCAR-5 ovarian): > 100 µM
TGI (A498 renal): > 100 µM
TGI (MDA-MB-231 breast): > 100 µM
TGI (SNB-75 CNS): > 100 µM
TGI (MOLT-4 leukemia): > 100 µM
TGI (SNB-19 CNS): > 100 µM
TGI (UACC-257 melanoma): > 100 µM
TGI (TK-10 renal): > 100 µM
TGI (SF-268 CNS): > 100 µM
TGI (PC-3 prostate): > 100 µM
TGI (MCF7 breast): > 100 µM
TGI (HCT-116 colon): > 100 µM
TGI (BT-549 breast): > 100 µM
TGI (KM12 colon): > 100 µM
TGI (786-0 renal): > 100 µM
TGI (NCI-H23 lung): > 100 µM
TGI (SK-MEL-28 melanoma): > 100 µM
TGI (SF-295 CNS): > 100 µM
TGI (ACHN renal): > 100 µM
TGI (A549 NSCLC): > 100 µM
TGI (HOP-62 NSCLC): > 100 µM
TGI (SK-OV-3 ovarian): > 100 µM
TGI (MDA-N): > 100 µM
TGI (SK-MEL-2 melanoma): > 100 µM
TGI (MALME-3M melanoma): > 100 µM
TGI (SW-620 colon): > 100 µM
TGI (K-562 leukemia): > 100 µM
TGI (UACC-62 melanoma): > 100 µM
TGI (DU-145 prostate): > 100 µM
TGI (U251 CNS): > 100 µM
TGI (OVCAR-3 ovarian): > 100 µM
TGI (RPMI-8226 leukemia): > 100 µM
TGI (HCC-2998 colon): > 100 µM
TGI (M14 melanoma): > 100 µM
TGI (NCI/ADR-RES ovarian): > 100 µM
TGI (IGROV1 ovarian): > 100 µM
TGI (OVCAR-4 ovarian): > 100 µM
TGI (MDA-MB-435): > 100 µM
TGI (HCT-15 colon): > 100 µM
TGI (COLO 205 colon): > 100 µM
TGI (NCI-H522 lung): > 100 µM
TGI (HT29 colon): > 100 µM
TGI (HOP-92 NSCLC): > 100 µM
TGI (CAKI-1 renal): > 100 µM
TGI (OVCAR-8 ovarian): > 100 µM
TGI (SK-MEL-5 melanoma): > 100 µM
TGI (HS 578T breast): > 100 µM
TGI (RXF 393 renal): > 100 µM
TGI (EKVX NSCLC): > 100 µM
TGI (NCI-H460 lung): > 100 µM

O=C(COc1ccc(OCC(=O)NNC2=NC(c3cc(F)c(Cl)cc3Cl)CS2)c(Cl)c1)NNC1=NC(c2cc(F)c(Cl)cc2Cl)CS1 (stereo not drawn)
TGI (UO-31 renal): > 100 µM
TGI (OVCAR-5 ovarian): > 100 µM
TGI (A498 renal): 56.2 µM
TGI (MDA-MB-231 breast): 54.5 µM
TGI (MOLT-4 leukemia): > 100 µM
TGI (SNB-19 CNS): > 100 µM
TGI (SN12C renal): 43.8 µM
TGI (UACC-257 melanoma): > 100 µM
TGI (TK-10 renal): > 100 µM
TGI (PC-3 prostate): > 100 µM
TGI (SR leukemia): > 100 µM
TGI (MCF7 breast): 34.6 µM
TGI (HCT-116 colon): > 100 µM
TGI (BT-549 breast): 66.1 µM
TGI (KM12 colon): > 100 µM
TGI (786-0 renal): > 100 µM
TGI (NCI-H23 lung): 50.1 µM
TGI (SK-MEL-28 melanoma): 86.9 µM
TGI (SF-295 CNS): 71.6 µM
TGI (SF-539 CNS): 64.5 µM
TGI (ACHN renal): > 100 µM
TGI (A549 NSCLC): 28.6 µM
TGI (HOP-62 NSCLC): > 100 µM
TGI (SK-OV-3 ovarian): > 100 µM
TGI (MDA-N): 92.9 µM
TGI (SK-MEL-2 melanoma): > 100 µM
TGI (MALME-3M melanoma): > 100 µM
TGI (SW-620 colon): > 100 µM
TGI (K-562 leukemia): > 100 µM
TGI (HL-60(TB) leukemia): > 100 µM
TGI (UACC-62 melanoma): 40.4 µM
TGI (DU-145 prostate): 59.8 µM
TGI (U251 CNS): 28.5 µM
TGI (RPMI-8226 leukemia): > 100 µM
TGI (M14 melanoma): > 100 µM
TGI (NCI/ADR-RES ovarian): > 100 µM
TGI (IGROV1 ovarian): > 100 µM
TGI (OVCAR-4 ovarian): 40.4 µM
TGI (MDA-MB-435): 44.6 µM
TGI (HCT-15 colon): 36 µM
TGI (COLO 205 colon): > 100 µM
TGI (NCI-H522 lung): 34.5 µM
TGI (HT29 colon): 59.3 µM
TGI (NCI-H226 lung): 46 µM
TGI (CCRF-CEM leukemia): > 100 µM
TGI (HOP-92 NSCLC): > 100 µM
TGI (OVCAR-8 ovarian): 64.5 µM
TGI (HS 578T breast): 48.7 µM
TGI (RXF 393 renal): 60.9 µM
TGI (LOX IMVI melanoma): 5.15 µM
TGI (EKVX NSCLC): 77.3 µM
TGI (NCI-H460 lung): > 100 µM
